Laboratory results: the supplement of paper PMC10307832

Legend:
Assay in all cases: relative viability (nuclei count vs DMSO), 5 days (fraction); higher = more cells survive
R406 + Lapatinib = compound: COc1cc(Nc2ncc(F)c(Nc3ccc4c(n3)NC(=O)C(C)(C)O4)n2)cc(OC)c1OC [R406] + CS(=O)(=O)CCNCc1ccc(-c2ccc3ncnc(Nc4ccc(OCc5cccc(F)c5)c(Cl)c4)c3c2)o1 [Lapatinib] (partner 2 µM)
Procedure, shortened: (§1)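 Relative viability divides the nuclei count in treated wells by that in vehicle wells. Lung cancer cell lines were seeded in 1536-well plates, dosed by pin tool the next day, and fixed and stained after 5 days in one step with final 0.05% Triton X-100, 1% formaldehyde and 1 ug/ml Hoechst. Dosing was a single drug or a fixed anchor-drug dose plus five library-drug doses (not always all listed) in √10 steps, and values are medians of duplicate plates imaged at 4×.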

R406 + Olaparib = compound: COc1cc(Nc2ncc(F)c(Nc3ccc4c(n3)NC(=O)C(C)(C)O4)n2)cc(OC)c1OC [R406] + O=C(c1cc(Cc2n[nH]c(=O)c3ccccc23)ccc1F)N1CCN(C(=O)C2CC2)CC1 [Olaparib] (partner 8 µM)
Procedure, shortened: as §1

Daporinad + Tozasertib = compound: O=C(/C=C/c1cccnc1)NCCCCC1CCN(C(=O)c2ccccc2)CC1 [Daporinad] + Cc1cc(Nc2cc(N3CCN(C)CC3)nc(Sc3ccc(NC(=O)C4CC4)cc3)n2)n[nH]1 [Tozasertib] (partner 0.1 µM)
Procedure, shortened: as §1

Daporinad + Decitabine = compound: O=C(/C=C/c1cccnc1)NCCCCC1CCN(C(=O)c2ccccc2)CC1 [Daporinad] + Nc1ncn([C@H]2C[C@H](O)[C@@H](CO)O2)c(=O)n1 [Decitabine] (partner 2 µM)
Procedure, shortened: as §1

| Cell Line | relative viability (R406 + Lapatinib; first compound 0.08 µM) | relative viability (R406 + Lapatinib; first compound 0.253 µM) | relative viability (R406 + Lapatinib; first compound 0.8 µM) | relative viability (R406 + Lapatinib; first compound 2.53 µM) | relative viability (R406 + Lapatinib; first compound 8 µM) | relative viability (R406 + Olaparib; first compound 0.08 µM) | relative viability (R406 + Olaparib; first compound 0.253 µM) | relative viability (R406 + Olaparib; first compound 0.8 µM) | relative viability (R406 + Olaparib; first compound 2.53 µM) | relative viability (R406 + Olaparib; first compound 8 µM) | relative viability (Daporinad + Tozasertib; first compound 0.0005 µM) | relative viability (Daporinad + Tozasertib; first compound 0.001581 µM) | relative viability (Daporinad + Tozasertib; first compound 0.005 µM) | relative viability (Daporinad + Tozasertib; first compound 0.01581 µM) | relative viability (Daporinad + Decitabine; first compound 0.0005 µM) | relative viability (Daporinad + Decitabine; first compound 0.001581 µM) | relative viability (Daporinad + Decitabine; first compound 0.005 µM) | relative viability (Daporinad + Decitabine; first compound 0.01581 µM) |
| --- | --- | --- | --- | --- | --- | --- | --- | --- | --- | --- | --- | --- | --- | --- | --- | --- | --- | --- |
| SK-LU-1 | 0.875 | 0.93 | 1.09 | 0.491 | 0.303 | 0.441 | 0.44 | 0.464 | 0.249 | 0.213 | 0.316 | 0.289 | 0.281 | 0.35 | 0.656 | 0.683 | 0.671 | 0.692 |
| SK-MES-1 | 0.416 | 0.477 | 0.5 | 0.449 | 0.295 | 0.613 | 0.677 | 0.715 | 0.327 | 0.174 | 0.85 | 0.948 | 1.08 | 0.865 | 0.377 | 0.374 | 0.383 | 0.375 |
| SW 1573 | 1.13 | 1.22 | 1.14 | 1.27 | 0.825 | 0.492 | 0.57 | 0.607 | 0.399 | 0.158 | 0.185 | 0.183 | 0.166 | 0.178 | 0.472 | 0.499 | 0.406 | 0.197 |
